In general, IC50 refers to the concentration needed to halve the response being measured.

IC50 data for eight molecules are collected here from patent US12692254B2, “Benzimidazole inhibitors of PAD enzymes” (BRISTOL-MYERS SQUIBB COMPANY, priority 2018, dated 2026).

This test concerns the target human PAD4 (hPAD4) (Homo sapiens, UniProt Q9UM07). Description: RFMS human PAD4 functional assay (rapid-fire mass spectrum). Type of test: biochemical. The following applies: 5 nM hPAD4 enzyme, 250 μM BAEE, 50 μM Calcium; 30 min preincubation, 90 min reaction at 37° C. Put shortly:
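PAD4 (10 nM) preincubated 30 min with compound (top final 50 μM), then BAEE substrate added in pH 7.5 HEPES buffer with DTT, 50 μM calcium, TPEN; 90 min at 37° C. After TCA quench, citrulline derivatized with phenyl glyoxal (4 mM final, 30 min, 37° C) and quantified by RapidFire MS against internal standard.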

Chain of human PAD4 (hPAD4) (Q9UM07 whole entry): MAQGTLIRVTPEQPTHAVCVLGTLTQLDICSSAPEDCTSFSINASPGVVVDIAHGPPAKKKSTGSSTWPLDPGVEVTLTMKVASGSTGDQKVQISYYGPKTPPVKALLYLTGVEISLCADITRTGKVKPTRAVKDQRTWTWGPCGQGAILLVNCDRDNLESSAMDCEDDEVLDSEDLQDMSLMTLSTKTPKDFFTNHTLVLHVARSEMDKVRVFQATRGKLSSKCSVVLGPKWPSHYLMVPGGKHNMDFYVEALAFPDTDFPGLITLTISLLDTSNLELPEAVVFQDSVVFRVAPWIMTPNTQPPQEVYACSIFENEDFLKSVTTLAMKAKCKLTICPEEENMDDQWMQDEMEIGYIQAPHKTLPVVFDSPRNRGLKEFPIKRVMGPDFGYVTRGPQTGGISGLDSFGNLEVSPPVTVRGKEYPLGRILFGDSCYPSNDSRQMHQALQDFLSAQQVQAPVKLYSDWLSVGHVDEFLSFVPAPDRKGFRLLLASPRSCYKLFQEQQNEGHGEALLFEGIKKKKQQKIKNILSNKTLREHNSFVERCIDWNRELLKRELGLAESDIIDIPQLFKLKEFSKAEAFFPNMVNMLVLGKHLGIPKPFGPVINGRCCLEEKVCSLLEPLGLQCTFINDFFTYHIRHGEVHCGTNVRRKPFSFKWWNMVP

Turning to `COC(=O)c1cccc(-n2cc(Cn3c(-c4cc5cccnc5n4CC4CC4)nc4cc(C(=O)N5C[C@H](N)C[C@@H](F)C5)cc(OC)c43)cn2)n1` [Example 364, methyl 6-[4-({5-[(3R,5R)-3-amino-5-fluoropipendine-1-carbonyl]-2-[1-(cyclopropylmethyl)-1H-pyrrolo[2,3-b]pyridin-2-yl]-7-methoxy-1H-1,3-benzodiazol-1-yl}methyl)-1H-pyrazol-1-yl]pyridine-2-carboxylate], the IC50 came out at 26 nM.

Turning to `CNc1cc(C(=O)N2CC(Cn3c(-c4cc5ccccc5n4CC4CC4)nc4cc(C(=O)N5CC6CCC5[C@@H]6N)cc(OC)c43)C2)ccn1` (stereo partly drawn) [Example 412, (7R)-2-{2-[1-(cyclopropylmethyl)-1H-indol-2-yl]-7-methoxy-1-({1-[2-(methylamino)pyridine-4-carbonyl]azetidin-3-yl}methyl)-1H-1,3-benzodiazole-5-carbonyl}-2-azabicyclo[2.2.1]heptan-7-amine], the IC50 turned out to be 18 nM.

With `COc1cc(C(=O)N2CC3CCC2[C@@H]3N)cc2nc(-c3cc4ccccc4n3C)n(Cc3cnn(C)c3)c12` (stereo partly drawn) [Example 513, (7R)-2-[7-methoxy-2-(1-methyl-1H-indol-2-yl)-1-[(1-methyl-1H-pyrazol-4-yl)methyl]-1H-1,3-benzodiazole-5-carbonyl]-2-azabicyclo[2.2.1]heptan-7-amine], the IC50 worked out at 391 nM.

On to `COc1cc(C(=O)N2CC3CCC2[C@@H]3N)cc2nc(-c3cc4ccccc4n3CC3CC3)n(Cc3cnn(C)c3C)c12` (stereo partly drawn) [Example 482, (7R)-2-{2-[1-(cyclopropylmethyl)-1H-indol-2-yl]-1-[(1,5-dimethyl-1H-pyrazol-4-yl)methyl]-7-methoxy-1H-1,3-benzodiazole-5-carbonyl}-2-azabicyclo[2.2.1]heptan-7-amine], for which the IC50 worked out at 23 nM.

As for `COc1cccc(-n2cc(Cn3c(-c4cc5cccnc5n4CC4CC4)nc4cc(C(=O)N5C[C@H](N)C[C@@H](F)C5)cc(OC)c43)cn2)n1` [Example 369, (3R,5R)-1-{2-[1-(cyclopropylmethyl)-1H-pyrrolo[2,3-b]pyridin-2-yl]-7-methoxy-1-{[1-(6-methoxypyridin-2-yl)-1H-pyrazol-4-yl]methyl}-1H-1,3-benzodiazole-5-carbonyl}-5-fluoropiperidin-3-amine], the IC50 was determined as 29 nM.

In the case of `COc1cc(C(=O)N2C[C@H]3CC[C@@H]2[C@@H]3N)cc2nc(-c3cc4cc(Cl)ccc4n3C)n(CC3CN(c4ccnc(C#N)n4)C3)c12` [Example 42, 4-[3-({5-[(1R,4R,7R)-7-amino-2-azabicyclo[2.2.1]heptane-2-carbonyl]-2-(5-chloro-1-methyl-1H-indol-2-yl)-7-methoxy-1H-1,3-benzodiazol-1-yl}methyl)azetidin-1-yl]pyrimidine-2-carbonitrile], the IC50 is 102 nM.

Regarding `N#Cc1ccc(C(=O)N2CC(Cn3c(-c4cc5ccccc5n4CC4CC4)nc4cc(C(=O)N5C[C@H]6CC[C@@H]5[C@@H]6N)cc(Cl)c43)C2)cc1` [Example 150, 4-[3-({5-[(1R,4R,7R)-7-amino-2-azabicyclo[2.2.1]heptane-2-carbonyl]-7-chloro-2-[1-(cyclopropylmethyl)-1H-indol-2-yl]-1H-1,3-benzodiazol-1-yl}methyl)azetidine-1-carbonyl]benzonitrile], the IC50 came out at 20 nM.

For `COc1cc(C(=O)N2C[C@H]3CC[C@@H]2[C@@H]3N)cc2nc(-c3cc4cccnc4n3CC3CC3)n(C3CN(C(=O)c4ccnc(Cl)n4)C3)c12` [Example 94, (1R,4R,7R)-2-{1-[1-(2-chloropyrimidine-4-carbonyl)azetidin-3-yl]-2-[1-(cyclopropylmethyl)-1H-pyrrolo[2,3-b]pyridin-2-yl]-7-methoxy-1H-1,3-benzodiazole-5-carbonyl}-2-azabicyclo[2.2.1]heptan-7-amine], the IC50 amounted to 34 nM.
